The text below walks through data of patent US20100190824A1, “Novel Substituted Piperidones as HSP Inducers” (priority 2007, published 2010).

Experiment [1] concerns HSP70b mRNA. As to the kind of experiment: Cellular expression of HSP-70 mRNA in Hela cells (real-time PCR). To be noted: fold induction of HSP-70b mRNA relative to the vehicle treated control; 4 hours; normalized to 18S rRNA. In kind it is cell-based. The method, then:
(§1) Experiments set forth in this section were conducted to determine whether the compounds of the present invention are able to elevate the expression of HSP-70 gene in cells.
(§2) Hela cell-line or primary mixed neurons derived from neonatal rat cerebellum were employed. Induction was carried out for the indicated dose(s) for 4 hours duration and total RNA was isolated. Expression of HSP70b mRNA along-with expression of 18S rRNA was monitored by real-time PCR. HSP70b mRNA expression was normalized relative to the expression of 18S rRNA.
(§3) The results for test compounds were expressed as fold induction of HSP-70 mRNA relative to vehicle treated control and are as shown in Table 2 & 3.
Background: In qPCR the cycle at which signal appears reflects the starting amount.

Another experiment has as its system TNF-α mRNA. Put plainly: Inhibition of LPS-induced TNF-α expression in PMA differentiated THP-1 cells. In kind it is cell-based, Human. To be noted: LPS (1 ug/ml) and compound for 4 hours, LPS alone as 100%. The method, then: The purpose of the present study was to determine the inhibition of lipopolysaccharide(LPS)-induced TNF-α expression in phorbol merstyl ester (PMA) differentiated THP-1 cells.
Human monocytic leukaemia cell line (THP-1), differentiated into macrophage-like cells by PMA treatment was employed. Differentiated cells were treated with either LPS (1 ug/ml) alone or with LPS (1 ug/ml) and compound for 4 hours. Total RNA was isolated and expression of TNF-αmRNA along-with expression of 18S rRNA was monitored by real-time PCR. TNF-α mRNA expression was normalized relative to the expression of 18S rRNA Considering TNF-α expression for cells treated with LPS alone as 100%; the results for test compounds were expressed as % inhibition of TNF-α expression and are as shown in Table 4

Experiment [2] deals with HSP70b mRNA. Put plainly: Cellular expression of HSP-70 mRNA in primary mixed neurons (real-time PCR). As to conditions: fold induction of HSP70b mRNA relative to vehicle treated control; primary mixed neurons from neonatal rat cerebellum; 4 hours; normalized to 18S rRNA. Type of experiment: cell-based. The procedure:
as §1, §2, §3

For the next experiment, the system named is male Sprague Dawley rats. As to the kind of experiment: Neuroprotective activity, transient cerebral ischemia (intraluminal suture occlusion). Type of experiment: in vivo, rat. The method, then:
Transient cerebral ischemia (for 2 hit) was induced in male Sprague Dawley rats of 240-270 g body weight under halothane anaesthesia by the intraluminal suture occlusion technique—inserting a 3-0 polyamide suture from proximal external carotid artery into the lumen of internal carotid artery (Longa E Z. et al. Stroke 20: 84-91; 1989). During the entire surgical procedure for the induction of stroke, the body temperature of the animal was maintained at 37° C., using a homoeothermic blanket. At the end of 2 hrs the suture was removed for reperfusion. The test compound was administered to animals at 8th hour post initiation of occlusion and subsequently at specified interval. At the end of 7 days all the animals were sacrificed and infarct was characterized after staining with triphenyl tetrazolium chloride (TTC). The images of the stained slices were captured using a scanner and was analyzed for infarct size and edema using Scion image software. Neurological scores were obtained at different time points after surgical recovery and improvement was assessed after reperfusion by calculating the percentage change from baseline scores (scores during ischemia).

Molecules are shown by their SMILES.

Regarding `CCOC(=O)N1CC(=Cc2ccccn2)C(=O)C(C)(C)C1Cc1ccc(OC)cc1` (stereo not drawn) [Compound 13, 2-(4-Methoxy-benzyl)-3,3-dimethyl-4-oxo-5-[1-pyridin-2-yl-methylidene]-piperidine-1-carboxylic acid ethyl ester], in the experiment with HSP70b mRNA [1], the “HSP Induction in Hela cells” value is “(+++) (193-1536 fold)”.

With `COc1ccc(CC2N(C(=O)Oc3ccccc3)CC(=Cc3ccccn3)C(=O)C2(C)C)cc1` (stereo not drawn) [Compound 14, 2-(4-Methoxy-benzyl)-3,3-dimethyl-4-oxo-5-[1-pyridin-2-yl-methylidene]-piperidine-1-carboxylic acid phenyl ester], the “HSP Induction in Hela cells” value in the experiment on HSP70b mRNA [1] is listed as “(+++) (193-1536 fold)”.

As for `COc1ccc(CC2N(C(=O)OCC(C)C)CC(=Cc3ccccn3)C(=O)C2(C)C)cc1` (stereo not drawn) [Compound 15, 2-(4-Methoxy-benzyl)-3,3-dimethyl-4-oxo-5-[1-pyridin-2-yl-methylidene]-piperidine-1-carboxylic acid isobutyl ester], the “HSP Induction in Hela cells” value with HSP70b mRNA [1] is “(++++) (>1536 fold)”.

For the molecule `COc1ccc(CC2N(C(=O)C(C)(C)C)CC(=Cc3ccccn3)C(=O)C2(C)C)cc1` (stereo not drawn) [Compound 16, 1-(2,2-Dimethyl-propionyl)-2-(4-methoxy-benzyl)-3,3-dimethyl-5-[1-pyridin-2-yl-methylidene]-piperidin-4-one], in the experiment on HSP70b mRNA [1], the “HSP Induction in Hela cells” value is given as “(++++) (>1536 fold)”. The “TNF-alpha Inhibition” value with TNF-α mRNA is “(++++) (>80%)”.

Take `COc1ccc(CC2N(C(=O)Nc3c(C)cccc3C)CC(=Cc3ccccn3)C(=O)C2(C)C)cc1` (stereo not drawn) [Compound 17, 2-(4-Methoxy-benzyl)-3,3-dimethyl-4-oxo-5-[1-pyridin-2-yl-methylidene]-piperidine-1-carboxylic acid (2,6-dimethyl-phenyl)-amde]: the “HSP Induction in Hela cells” value in the experiment on HSP70b mRNA [1] is given as “(++) (25-192 fold)”.

Consider `CC1(C)CN(Cc2ccccc2)CC(=Cc2cccc(N3CCOCC3)n2)C1=O` [Compound 20, 1-Benzyl-3,3-dimethyl-5-[1-(6-morpholin-4-yl-pyridin-2-yl)-methylidene]-piperidin-4-one], for which the “HSP Induction in Hela cells” value with HSP70b mRNA [1] is on record as “(+++) (193-1536 fold)”. Besides, the “TNF-alpha Inhibition” value in the experiment with TNF-α mRNA is “(++) (41-60%)”.

Consider `CC1(C)CN(Cc2ccccc2)CC(=Cc2cccc(N3CCCCC3)n2)C1=O` [Compound 23, 1-Benzyl-3,3-dimethyl-5-[1-(3,4,5,6-tetrahydro-2H-[1,2′]bipyridinyl-6′-yl)-methylidene]-piperidin-4-one], for which the “HSP Induction in Hela cells” value in the experiment with HSP70b mRNA [1] is on record as “(+++) (193-1536 fold)”.

For the molecule `CC1(C)CN(Cc2ccccc2)C(c2ccccc2)C(=Cc2ccccn2)C1=O` (stereo not drawn) [Compound 25, 1-Benzyl-5,5-dimethyl-2-phenyl-3-[1-pyridin-2-yl-methylidene]-piperidin-4-one], the “HSP Induction in Hela cells” value in the experiment with HSP70b mRNA [1] is listed as “(++++) (>1536 fold)”.

As to `CC1(C)CN(Cc2ccccc2)C(c2ccccn2)C(=Cc2cccc(N3CCOCC3)n2)C1=O` (stereo not drawn) [Compound 28, 1-Benzyl-5,5-dimethyl-3-[1-(6-morpholin-4-yl-pyridin-2-yl)-methylidene]-2,3,5,6-tetrahydro-1H-[2,2′]bipyridinyl-4-one], the “HSP Induction in Hela cells” value in the experiment with HSP70b mRNA [1] is on record as “(++++) (>1536 fold)”.

Take `CC1(C)CN(Cc2ccccc2)C(c2ccccn2)C(=Cc2ccccn2)C1=O` (stereo not drawn) [Compound 29, 1-Benzyl-5,5-dimethyl-3-[1-pyridin-2-yl-methylidene]-2,3,5,6-tetrahydro-1H-[2,2′]bipyridinyl-4-one]: the “HSP Induction in Hela cells” value in the experiment on HSP70b mRNA [1] was “(+++) (193-1536 fold)”.

For the molecule `CSc1ccc(C=C2C(=O)C(C)(C)CN(Cc3ccccc3)C2c2ccccc2)cc1` (stereo not drawn) [Compound 30, 1-Benzyl-5,5-dimethyl-3-[1-(4-methylsulfanyl-phenyl)-methylidene]-2-phenyl-piperidin-4-one], in the experiment on HSP70b mRNA [1], the “HSP Induction in Hela cells” value is “(+) (4-24 fold)”.

Consider `CC1(C)CN(Cc2ccccc2)C(c2ccccc2)C(=Cc2cccc(N3CCOCC3)n2)C1=O` (stereo not drawn) [Compound 31, 1-Benzyl-5,5-dimethyl-3-[1-(6-morpholin-4-yl-pyridin-2-yl)-methylidene]-2-phenyl-piperidin-4-one], for which the “HSP Induction in Hela cells” value with HSP70b mRNA [1] is reported as “(++) (25-192 fold)”.

For `CC1(C)CN(Cc2ccccc2)C(c2cccs2)C(=Cc2cccc(N3CCOCC3)n2)C1=O` (stereo not drawn) [Compound 33, 1-Benzyl-5,5-dimethyl-3-[1-(6-morpholin-4-yl-pyridin-2-yl)-methylidene]-2-thiophen-2-yl-piperidin-4-one], the “HSP Induction in Hela cells” value with HSP70b mRNA [1] was “(+++) (193-1536 fold)”.

Consider `CC1(C)CN(Cc2ccccc2)C(c2ccccn2)C(=Cc2cccc(N3CCCCC3)n2)C1=O` (stereo not drawn) [Compound 34, 1-Benzyl-5,5-dimethyl-3-[1-(3,4,5,6-tetrahydro-2H-[1,2′]bipyridinyl-6′-yl)-methylidene]-2,3,5,6-tetrahydro-1H-[2,2′]bipyridinyl-4-one], for which the “HSP Induction in Hela cells” value with HSP70b mRNA [1] is reported as “(++) (25-192 fold)”.

For `CC1(C)CN(C(=O)Oc2ccccc2)CC(=Cc2cccc(N3CCCCC3)n2)C1=O` [Compound 35, 3,3-Dimethyl-4-oxo-5-[1-(3,4,5,6-tetrahydro-2H-[1,2′]bipyridinyl-6′-yl)-methylidene]-piperidine-1-carboxylic acid phenyl ester], the “HSP Induction in Hela cells” value with HSP70b mRNA [1] is recorded as “(++++) (>1536 fold)”.

With `CC1(C)CN(C(=O)Oc2ccccc2)CC(=Cc2cccc(N3CCOCC3)n2)C1=O` [Compound 36, 3,3-Dimethyl-5-[1-(6-morpholin-4-yl-pyridin-2-yl)-methylidene]-4-oxo-piperidine-1-carboxylic acid phenyl ester], the “HSP Induction in Hela cells” value in the experiment with HSP70b mRNA [1] was “(++++) (>1536 fold)”.

With `CC1(C)CN(Cc2ccccc2)CC(=Cc2nc3ccccc3c(=O)[nH]2)C1=O` [Compound 37, 2-[1-Benzyl-5,5-dimethyl-4-oxo-piperidin-3-ylidenemethyl]-3H-quinazolin-4-one], the “HSP Induction in Hela cells” value with HSP70b mRNA [1] was “(++++) (>1536 fold)”.

For the molecule `COc1ccc(CC2N(C(=O)Nc3c(C(C)C)cccc3C(C)C)CC(=Cc3ccccn3)C(=O)C2(C)C)cc1` (stereo not drawn) [Compound 68, 2-(4-Methoxy-benzyl)-3,3-dimethyl-4-oxo-5-[1-pyridin-2-yl-methylidene]-piperidine-1-carboxylic acid (2,6-diisopropyl-phenyl)-amide], in the experiment on TNF-α mRNA, the “TNF-alpha Inhibition” value is “(++++) (>80%)”. The “HSP Induction in mixed neuron” value in the experiment with HSP70b mRNA [2] is listed as “(++++) (>16 fold)”. Besides, in the experiment with male Sprague Dawley rats (i.p. 15.2 mg/kg, multiple dose, from 8th hour post initiation of occlusion, 2 h ischemia, sacrificed at 7 days), the “% reduction Edema” value came out at 51.0%. Further, in the experiment with male Sprague Dawley rats (i.p. 15.2 mg/kg, multiple dose, from 8th hour post initiation of occlusion, 2 h ischemia, sacrificed at 7 days, TTC staining), the “% reduction Infarct” value worked out at 30.0%. Also, in the experiment with male Sprague Dawley rats (i.p. 15.2 mg/kg, multiple dose, percentage change from baseline scores (scores during ischemia)), the “% improvement Mean Neurological Score” value was found to be 61.1%. The “neuroprotective activity in an animal model of cerebral ischemia” value in the experiment with male Sprague Dawley rats (result in words) is “reduced infarct size and brain edema with improvement in neurological deficit”.

As for `CC1(C)C(=O)C(=Cc2ccccn2)CN(C(=S)Nc2ccccc2)C1c1ccc(S(C)(=O)=O)cc1` (stereo not drawn) [Compound 105, 2-(4-Methanesulfonyl-phenyl)-3,3-dimethyl-4-oxo-5-[1-pyridin-2-yl-methylidene]-piperidine-1-carbothioic acid phenylamide], the “TNF-alpha Inhibition” value in the experiment on TNF-α mRNA was “(++) (41-60%)”. The “HSP Induction in mixed neuron” value with HSP70b mRNA [2] is “(++) (5-8 fold)”.

On to `CC1(C)CN(Cc2ccccc2)C(c2ccc(S(C)(=O)=O)cc2)C(=Cc2cccc(N3CCOCC3)n2)C1=O` (stereo not drawn) [Compound 227, 1-Benzyl-2-(4-methanesulfonyl-phenyl)-5,5-dimethyl-3-[1-(6-morpholin-4-yl-pyridin-2-yl)-methylidene]-piperidin-4-one], for which the “TNF-alpha Inhibition” value with TNF-α mRNA is “(++++) (>80%)”. The “HSP Induction in mixed neuron” value in the experiment with HSP70b mRNA [2] is given as “(++++) (>16 fold)”.

For the molecule `CC1(C)CN(Cc2ccccc2)C(c2ccc(S(C)(=O)=O)cc2)C(=Cc2ccccn2)C1=O` (stereo not drawn) [Compound 229, 1-Benzyl-2-(4-methanesulfonyl-phenyl)-5,5-dimethyl-3-[1-pyridin-2-yl-methylidene]-piperidin-4-one], the “TNF-alpha Inhibition” value in the experiment on TNF-α mRNA is reported as “(++++) (>80%)”. In addition, the “HSP Induction in mixed neuron” value in the experiment with HSP70b mRNA [2] is “(++) (5-8 fold)”.

Take `COc1ccc(OC)c(C2C(=Cc3cccc(N4CCN(C)CC4)n3)C(=O)C(C)(C)CN2Cc2ccc(C)cc2)c1` (stereo not drawn) [Compound 234, 2-(2,5-Dimethoxy-phenyl)-5,5-dimethyl-1-(4-methyl-benzyl)-3-[1-[6-(4-methyl-piperazin-1-yl)-pyridin-2-yl]-methylidene]-piperidin-4-one]: the “TNF-alpha Inhibition” value in the experiment on TNF-α mRNA was “(+++) (61-80%)”. Besides, in the experiment with HSP70b mRNA [2], the “HSP Induction in mixed neuron” value is on record as “(+++) (9-16 fold)”.
